Experimental findings from patent US9498463B2, “Compound obtained from gamboge resin, and medical uses of the same” (priority 2010, dated 2016) are described below.

Molecules are shown by their SMILES. pIC50: −log10 of the molar value. In brackets after ≈: the same amount, converted by molar mass. Where two headings read alike, the source gives them in different places.

Data set [1] deals with Human umbilical venal epithelial cell (HUVEC). Briefly: in vitro. The following applies: HUVEC; for LC50 (50% lethal concentration): normal human cell line; for IC50: Homo sapiens, read-out: IC50 (50% inhibition concentration), HUVEC, normal human cell line. The source says: (§1) In Vitro Anti-Cancer Test
(§2) The in vitro anti-cancer test was primarily used to detect the effect of a candidate drug on cancer cell proliferation. The working principle involved therein is the ability of viable cells to shift alamarBlue (AbD Serotec, UK) from its originally non-fluorescent oxidized state (non-fluorescent, blue) to a reduced form (fluorescent, red) having fluorescence via metabolic reaction. According to the fluorescent data result generated by the alamarBlue reagent thus obtained, the proliferation of the viable cells and cell activity can be quantified for detection.
(§3) In the in vitro anti-cancer tests, a candidate drug was tested at 5 different concentrations of 0.01, 0.1, 1, 10, and 100 μg/ml, and six human cancer cell lines and a normal human cell line were used (see Table 5).

For data set [2], the system named is Human histocytic lymphoma cell U937. Briefly: cells. The following applies: U-937, read-out: IC50 (50% inhibition concentration), U937.
From the text: as §1, §2, §3

Data set [3] has as its system Human lung carcinoma cell A549. Briefly: cells. Conditions: A549, read-out: IC50 (50% inhibition concentration), A549.
From the text: as §1, §2, §3

Data set [4] relates to Human colon adenocarcinoma cell HT-29. Kind of data set: cells. Conditions: HT-29, read-out: IC50 (50% inhibition concentration), HT-29.
From the text: as §1, §2, §3

In data set [5] the test system is Human hepatocellular carcinoma cell HepG2. Kind of data set: cells. Conditions: HepG2, read-out: IC50 (50% inhibition concentration), HepG2.
From the text: as §1, §2, §3

The subject of data set [6] is Human promyelocytic leukemia cell HL-60. Briefly: cells. Conditions: HL-60, read-out: IC50 (50% inhibition concentration), HL-60.
From the text: as §1, §2, §3

Data set [7] deals with Human breast adenocarcinoma cell MCF7. Briefly: cells. The following applies: for IC50: Homo sapiens, MCF7, read-out: IC50 (50% inhibition concentration), MCF-7.
From the text: as §1, §2, §3

Regarding `CC(C)=CCC[C@]1(C)C=Cc2c(O)c3c(c(CC4OC4(C)C)c2O1)O[C@]12C(=C[C@@H]4CC1C(C)(C)OC2(C/C=C(/C)C(=O)O)C4=O)C3=O` (stereo partly drawn) [Gh-3352, 2-butenoic acid, 2-methyl-4-[(1R,3aS,5S,11R,14aS)-3a,4,5,7-tetrahydro-8-hydroxy-3,3,11-trimethyl-13-(2,3-epoxy-3-methylbutyl)-11-(4-methyl-3-pentenyl)-7,15-dioxo-1,5-methano-1H,3H,11H-furo[3.4-g]pyrano[3.2-b]xanthen-1-yl]-,(2Z)-], in data set [1], the “LC50 (50% lethal concentration)” value came to 0.85 µg/mL (≈ 1.32 µM).
Turning to `CC(C)=CCC[C@]1(C)C=Cc2c(O)c3c(c(CC(O)C(C)(C)O)c2O1)O[C@]12C(=C[C@@H]4CC1C(C)(C)OC2(C/C=C(/C)C(=O)O)C4=O)C3=O` (stereo partly drawn) [Gh-1052, 2-butenoic acid, 2-methyl-4-[(1R,3aS,5S,11R,14aS)-3a,4,5,7-tetrahydro-8-hydroxy-3,3,11-trimethyl-13-(2,3-dihydroxy-3-methylbutyl)-11-(4-methyl-3-pentenyl)-7,15-dioxo-1,5-methano-1H,3H,11H-furo[3.4-g]pyrano[3.2-b]xanthen-1-yl]-,(2Z)-], the IC50 was determined as 0.22 µg/mL (≈ 0.332 µM) in data set [2]; 0.46 µg/mL (≈ 0.694 µM) in data set [3]; 0.47 µg/mL (≈ 0.709 µM) in data set [1]; 1.6 µg/mL (≈ 2.41 µM) in data set [4]; 1.2 µg/mL (≈ 1.81 µM) in data set [5]; 0.23 µg/mL (≈ 0.347 µM) in data set [6]. In data set [7], the IC50 was 0.52 µg/mL.
Turning to `CC(C)=CCc1c2c(c(O)c3c1O[C@]14C(=C[C@@H]5CC1C(C)(C)OC4(C/C=C(/C)C(=O)O)C5=O)C3=O)C=C[C@@](C)(CCC(O)C(C)(C)O)O2` (stereo partly drawn) [Gh-3261, 2-butenoic acid, 2-methyl-4-[(1R,3aS,5S,11R,14aS)-3a,4,5,7-tetrahydro-8-hydroxy-3,3,11-trimethyl-13-(3-methyl-2-butenyl)-11-(3,4-dihydroxy-4-methylpentyl)-7,15-dioxo-1,5-methano-1H,3H,11H-furo[3.4-g]pyrano[3.2-b]xanthen-1-yl]-,(2Z)-], the IC50 in data set [2] was determined as 0.11 µg/mL (≈ 0.166 µM); in data set [3] it was 0.19 µg/mL (≈ 0.287 µM); in data set [1], 0.29 µg/mL (≈ 0.438 µM); in data set [4], 1.1 µg/mL (≈ 1.66 µM); in data set [5], 1 µg/mL (≈ 1.51 µM); in data set [6] it was 1.9 µg/mL (≈ 2.87 µM). Besides, the IC50 in data set [7] was 0.36 µg/mL.
As to `CC(C)=CCC[C@@]1(C)C=Cc2c(O)c3c(c(CC(O)C(C)(C)O)c2O1)O[C@]12C(=C[C@@H]4CC1C(C)(C)OC2(C/C=C(/C)C(=O)O)C4=O)C3=O` (stereo partly drawn) [Gh-1036, 2-butenoic acid, 2-methyl-4-[(1R,3aS,5S,11S,14aS)-3a,4,5,7-tetrahydro-8-hydroxy-3,3,11-trimethyl-13-(2,3-dihydroxy-3-methylbutyl)-11-(4-methyl-3-pentenyl)-7,15-dioxo-1,5-methano-1H,3H,11H-furo[3.4-g]pyrano[3.2-b]xanthen-1-yl]-,(2Z)-], the IC50 in data set [2] amounted to 0.29 µg/mL (≈ 0.438 µM); in data set [3], 0.22 µg/mL (≈ 0.332 µM); in data set [1], 0.46 µg/mL (≈ 0.694 µM); in data set [4], 1.4 µg/mL (≈ 2.11 µM); in data set [5], 0.88 µg/mL (≈ 1.33 µM); in data set [6], 0.45 µg/mL (≈ 0.679 µM). Further, the IC50 in data set [7] was 0.35 µg/mL.
For `C=C(C)C1CC[C@@]2(C)Oc3c(CC=C(C)C)c4c(c(O)c3[C@@H]1C2O)C(=O)C1=C[C@@H]2CC3C(C)(C)OC(C/C=C(/C)C(=O)O)(C2=O)[C@@]13O4` (stereo in doubt) [Gh-1050, 2-butenoic acid, 2-methyl-4-[(1R,3aS,5S,9R,10S,13R,16aS,17S)-3a,4,5,7,10,11,12,13-octahydro-8,17-dihydroxy-3,3,13-trimethyl-15-(3-methyl-2-butenyl)-10-(1-methylethenyl)-7,18-dioxo-1,5:9,13-dimethano-1H,3H,9H-furo[3.4-g]oxocino[3.2-b]xanthen-1-yl]-,(2Z)-], in data set [1], the “LC50 (50% lethal concentration)” value came out at 3.4 µg/mL (≈ 5.27 µM).
Regarding `CO[C@@]12[C@H](COC(N)=O)C3=C(C(=O)C(C)=C(N)C3=O)N1C[C@@H]1N[C@@H]12` [Mitomycin, mitomycin, reference compound], in data set [7] (read-out: IC50 (50% inhibition concentration), MCF-7, positive control), the pIC50 was 6.82.
As for `CC(C)=CCC[C@]1(C)C=Cc2c(O)c3c(c(C(O)C4OC4(C)C)c2O1)O[C@]12C(=C[C@@H]4CC1C(C)(C)OC2(C/C=C(/C)C(=O)O)C4=O)C3=O` (stereo partly drawn) [Gh-3353, 2-butenoic acid, 2-methyl-4-[(1R,3aS,5S,11R,14aS)-3a,4,5,7-tetrahydro-8-hydroxy-3,3,11-trimethyl-13-(1-hydroxy-2,3-epoxy-3-methylbutyl)-11-(4-methyl-3-pentenyl)-7,15-dioxo-1,5-methano-1H,3H,11H-furo[3.4-g]pyrano[3.2-b]xanthen-1-yl]-,(2Z)-], in data set [1], the “LC50 (50% lethal concentration)” value is 8.4 µg/mL (≈ 12.7 µM).
Still for that read-out and setting: under `CC(C)=CCc1c2c(c(O)c3c1O[C@]14C(=C[C@@H]5CC1C(C)(C)OC4(C/C=C(\C)C(=O)O)C5=O)C3=O)C=CC(C)(C/C=C\C(C)(C)O)O2` (stereo in doubt) [Gh-3332, 2-butenoic acid, 2-methyl-4-[(1R,3aS,5S,14aS)-3a,4,5,7-tetrahydro-8-hydroxy-3,3,11-trimethyl-13-(3-methyl-2-butenyl)-11-(4-hydroxy-4-methyl-2Z-pentenyl)-7,15-dioxo-1,5-methano-1H,3H,11H-furo[3.4-g]pyrano[3.2-b]xanthen-1-yl]-,(2E)-] stands 3.3 µg/mL (≈ 5.12 µM); under `C=C(C)C(O)CC[C@]1(C)C=Cc2c(O)c3c(c(CC=C(C)C)c2O1)O[C@]12C(=C[C@@H]4CC1C(C)(C)OC2(C/C=C(/C)C(=O)O)C4=O)C3=O` (stereo partly drawn) [Gh-3291, 2-butenoic acid, 2-methyl-4-[(1R,3aS,5S,11R,14aS)-3a,4,5,7-tetrahydro-8-hydroxy-3,3,11-trimethyl-13-(3-methyl-2-butenyl)-11-(3-hydroxy-4-methyl-4-pentenyl)-7,15-dioxo-1,5-methano-1H,3H,11H-furo[3.4-g]pyrano[3.2-b]xanthen-1-yl]-,(2Z)-], 1.4 µg/mL (≈ 2.17 µM).
On to `CC(C)=CCc1c2c(c(O)c3c1O[C@]14C(=C[C@@H]5CC1C(C)(C)OC4(C/C=C(/C)C(=O)O)C5=O)C3=O)C=C[C@](C)(CCC(O)C(C)(C)O)O2` (stereo partly drawn) [Gh-3271, 2-butenoic acid, 2-methyl-4-[(1R,3aS,5S,11S,14aS)-3a,4,5,7-tetrahydro-8-hydroxy-3,3,11-trimethyl-13-(3-methyl-2-butenyl)-11-(3,4-dihydroxy-4-methylpentyl)-7,15-dioxo-1,5-methano-1H,3H,11H-furo[3.4-g]pyrano[3.2-b]xanthen-1-yl]-,(2Z)-], for which the IC50 turned out to be 0.11 µg/mL (≈ 0.166 µM) in data set [2]; 0.25 µg/mL (≈ 0.377 µM) in data set [3]; 0.42 µg/mL (≈ 0.634 µM) in data set [1]; 1.8 µg/mL (≈ 2.72 µM) in data set [4]; 0.46 µg/mL (≈ 0.694 µM) in data set [5]; 3 µg/mL (≈ 4.53 µM) in data set [6]. For the same compound, the IC50 in data set [7] was 0.16 µg/mL.
Turning to `CC(C)=CCC[C@@]1(C)Oc2c(c(O)c3c(c2CC=C(C)C)O[C@]24C(=C[C@@H]5CC2C(C)(C)OC4(C/C=C(/C)C(=O)O)C5=O)C3=O)C[C@H]1O` (stereo in doubt) [Gh-1631, 2-butenoic acid, 2-methyl-4-[(1R,3aS,5S,10R,11R,14aS)-3a,4,5,7,10,11-hexahydro-8,10-dihydroxy-3,3,11-trimethyl-13-(3-methyl-2-butenyl)-11-(4-methyl-3-pentenyl)-7,15-dioxo-1,5-methano-1H,3H,9H-furo[3.4-g]pyrano[3.2-b]xanthen-1-yl]-,(2Z)-], the IC50 in data set [2] turned out to be 0.18 µg/mL (≈ 0.278 µM); in data set [3], 0.14 µg/mL (≈ 0.216 µM); in data set [1], 0.58 µg/mL (≈ 0.897 µM); in data set [4] it was 6.1 µg/mL (≈ 9.43 µM); in data set [5], 0.85 µg/mL (≈ 1.31 µM); in data set [6] it was 0.19 µg/mL (≈ 0.294 µM). The IC50 in data set [7] worked out at 0.14 µg/mL.
For the compound `CC(C)=CCC[C@@]1(C)C=Cc2c(O)c3c(c(C(O)C4OC4(C)C)c2O1)O[C@]12C(=C[C@@H]4CC1C(C)(C)OC2(C/C=C(/C)C(=O)O)C4=O)C3=O` (stereo partly drawn) [Gh-3311, 2-butenoic acid, 2-methyl-4-[(1R,3aS,5S,11S,14aS)-3a,4,5,7-tetrahydro-8-hydroxy-3,3,11-trimethyl-13-(1-hydroxy-2,3-epoxy-3-methylbutyl)-11-(4-methyl-3-pentenyl)-7,15-dioxo-1,5-methano-1H,3H,11H-furo[3.4-g]pyrano[3.2-b]xanthen-1-yl]-,(2Z)-], in data set [1], the “LC50 (50% lethal concentration)” value came to 13.9 µg/mL (≈ 21 µM).
Still for that read-out and setting: as for `CC(C)=CCC[C@@]1(C)C=Cc2c(O)c3c(c(CC4OC4(C)C)c2O1)O[C@]12C(=C[C@@H]4CC1C(C)(C)OC2(C/C=C(/C)C(=O)O)C4=O)C3=O` (stereo partly drawn) [Gh-3351, 2-butenoic acid, 2-methyl-4-[(1R,3aS,5S,11S,14aS)-3a,4,5,7-tetrahydro-8-hydroxy-3,3,11-trimethyl-13-(2,3-epoxy-3-methylbutyl)-11-(4-methyl-3-pentenyl)-7,15-dioxo-1,5-methano-1H,3H,11H-furo[3.4-g]pyrano[3.2-b]xanthen-1-yl]-,(2Z)-], the figure is 3.3 µg/mL (≈ 5.12 µM); as for `CC(C)=CCc1c2c(c(O)c3c1O[C@]14C(=C[C@@H]5CC1C(C)(C)OC4(C/C=C(/C)C(=O)O)C5=O)C3=O)C=C[C@@](C)(C/C=C/C(C)(C)O)O2` [Gh-3272, 2-butenoic acid, 2-methyl-4-[(1R,3aS,5S,11R,14aS)-3a,4,5,7-tetrahydro-8-hydroxy-3,3,11-trimethyl-13-(3-methyl-2-butenyl)-11-(4-hydroxy-4-methyl-2E-pentenyl)-7,15-dioxo-1,5-methano-1H,3H,11H-furo[3.4-g]pyrano[3.2-b]xanthen-1-yl]-,(2Z)-], 2.5 µg/mL (≈ 3.88 µM).
